Data as given in ChEMBL document CHEMBL3132769, “Fragment growing to retain or alter the selectivity of anchored kinase hinge-binding fragments” (Medchemcomm, 2014).

What was measured:
[1] = target: RAF proto-oncogene serine/threonine-protein kinase (Homo sapiens) (UniProt P04049); assay: Inhibition of human truncated c-Raf expressed in baculovirus assessed as substrate phosphorylation using fluorescence-labelled peptides as substrate at 9 uM after 90 mins by microfluidic peptide phosphorylation assay
[2] = test system: Fibroblast growth factor receptor 2 (Homo sapiens), P21802 [N549H]; assay: Inhibition of human FGFR2 N549H mutant catalytic domain expressed in baculovirus assessed as substrate phosphorylation using fluorescence-labelled peptides as substrate at 95 uM after 90 mins by microfluidic peptide phosphorylation assay
[3] = target: T1, Serine/threonine-protein kinase BRSK1 (Homo sapiens) (UniProt Q8TDC3); assay: Inhibition of human full length BRSK1 expressed in baculovirus assessed as substrate phosphorylation using fluorescence-labelled peptides as substrate at 95 uM after 90 mins by microfluidic peptide phosphorylation assay
T1 sequence (whole entry): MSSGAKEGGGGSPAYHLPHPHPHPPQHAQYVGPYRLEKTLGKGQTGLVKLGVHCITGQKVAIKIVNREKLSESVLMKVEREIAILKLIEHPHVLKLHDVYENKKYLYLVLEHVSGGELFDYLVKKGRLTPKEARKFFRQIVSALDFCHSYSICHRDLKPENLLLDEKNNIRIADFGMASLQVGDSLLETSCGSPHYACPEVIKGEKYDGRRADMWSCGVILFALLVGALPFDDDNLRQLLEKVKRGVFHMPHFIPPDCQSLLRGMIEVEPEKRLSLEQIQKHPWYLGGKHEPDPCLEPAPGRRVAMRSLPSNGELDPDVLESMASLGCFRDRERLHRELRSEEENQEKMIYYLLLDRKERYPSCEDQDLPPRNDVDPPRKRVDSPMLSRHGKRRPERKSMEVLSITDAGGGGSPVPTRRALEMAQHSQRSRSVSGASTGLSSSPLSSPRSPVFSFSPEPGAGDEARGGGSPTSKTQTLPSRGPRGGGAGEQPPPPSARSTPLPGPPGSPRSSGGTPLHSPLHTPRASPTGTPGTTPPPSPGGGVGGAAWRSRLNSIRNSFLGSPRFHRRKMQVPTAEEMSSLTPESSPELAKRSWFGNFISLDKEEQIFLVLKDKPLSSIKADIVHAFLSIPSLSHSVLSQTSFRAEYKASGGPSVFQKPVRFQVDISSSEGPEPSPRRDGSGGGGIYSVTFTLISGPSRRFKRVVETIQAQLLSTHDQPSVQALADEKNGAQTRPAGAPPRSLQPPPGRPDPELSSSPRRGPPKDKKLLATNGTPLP

[4] = target: RAF proto-oncogene serine/threonine-protein kinase (Homo sapiens) (UniProt P04049); assay: Inhibition of human truncated c-Raf expressed in baculovirus assessed as substrate phosphorylation using fluorescence-labelled peptides as substrate at 0.06 uM after 90 mins by microfluidic peptide phosphorylation assay
[5] = target: Calcium/calmodulin-dependent protein kinase type II subunit delta (Homo sapiens) (UniProt Q13557); conditions: 0.1 uM
Description: Inhibition of human full length CAMK2D expressed in baculovirus assessed as substrate phosphorylation using fluorescence-labelled peptides as substrate at 0.1 uM after 90 mins by microfluidic peptide phosphorylation assay

[6] = target: Insulin receptor (Homo sapiens) (UniProt P06213); conditions: 0.1 uM
Description: Inhibition of human INSR catalytic domain expressed in baculovirus assessed as substrate phosphorylation using fluorescence-labelled peptides as substrate at 0.1 uM after 90 mins by microfluidic peptide phosphorylation assay

[7] = target: T2, Testis-specific serine/threonine-protein kinase 1 (Homo sapiens) (UniProt Q9BXA7); assay: Inhibition of human full length TSSK1 expressed in baculovirus assessed as substrate phosphorylation using fluorescence-labelled peptides as substrate at 420 uM after 90 mins by microfluidic peptide phosphorylation assay
T2 sequence (whole entry): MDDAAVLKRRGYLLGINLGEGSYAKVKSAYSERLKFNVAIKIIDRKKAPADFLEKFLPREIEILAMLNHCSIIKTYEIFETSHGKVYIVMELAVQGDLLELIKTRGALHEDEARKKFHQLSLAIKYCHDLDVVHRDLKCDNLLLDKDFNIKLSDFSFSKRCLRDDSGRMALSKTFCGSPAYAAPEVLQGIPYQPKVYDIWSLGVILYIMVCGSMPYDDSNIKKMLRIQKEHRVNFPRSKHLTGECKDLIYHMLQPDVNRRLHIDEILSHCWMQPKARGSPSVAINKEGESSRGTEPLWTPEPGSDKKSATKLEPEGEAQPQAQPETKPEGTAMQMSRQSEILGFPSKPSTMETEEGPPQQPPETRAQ

[8] = target: Protein kinase C beta type (Homo sapiens) (UniProt P05771); assay: Inhibition of human full length PKC beta2 expressed in baculovirus assessed as substrate phosphorylation using fluorescence-labelled peptides as substrate at 0.2 uM after 90 mins by microfluidic peptide phosphorylation assay
[9] = target: T3, Protein kinase C zeta type (Homo sapiens) (UniProt Q05513); assay: Inhibition of human full length PKC zeta expressed in baculovirus assessed as substrate phosphorylation using fluorescence-labelled peptides as substrate at 0.2 uM after 90 mins by microfluidic peptide phosphorylation assay
T3 sequence (whole entry): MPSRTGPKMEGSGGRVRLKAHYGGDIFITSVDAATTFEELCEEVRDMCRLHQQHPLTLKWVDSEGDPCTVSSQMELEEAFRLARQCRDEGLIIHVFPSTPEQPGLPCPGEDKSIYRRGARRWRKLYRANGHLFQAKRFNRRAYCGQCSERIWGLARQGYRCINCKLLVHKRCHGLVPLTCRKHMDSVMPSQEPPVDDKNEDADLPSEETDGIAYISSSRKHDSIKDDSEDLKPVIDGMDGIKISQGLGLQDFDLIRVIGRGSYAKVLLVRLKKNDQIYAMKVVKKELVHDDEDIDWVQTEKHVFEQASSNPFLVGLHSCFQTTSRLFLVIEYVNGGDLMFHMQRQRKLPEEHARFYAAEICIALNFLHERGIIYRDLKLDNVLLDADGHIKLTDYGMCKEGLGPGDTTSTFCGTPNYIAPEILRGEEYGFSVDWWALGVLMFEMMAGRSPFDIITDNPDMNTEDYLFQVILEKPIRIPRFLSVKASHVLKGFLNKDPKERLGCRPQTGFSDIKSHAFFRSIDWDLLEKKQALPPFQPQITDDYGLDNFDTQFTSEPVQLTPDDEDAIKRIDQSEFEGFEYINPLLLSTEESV

[10] = target: Mitogen-activated protein kinase kinase kinase kinase 4 (Homo sapiens) (UniProt O95819); assay: Inhibition of human HGK catalytic domain expressed in baculovirus assessed as substrate phosphorylation using fluorescence-labelled peptides as substrate at 2 uM after 90 mins by microfluidic peptide phosphorylation assay
[11] = target: Tyrosine-protein kinase HCK (Homo sapiens) (UniProt P08631); assay: Inhibition of human HCK catalytic domain expressed in baculovirus assessed as substrate phosphorylation using fluorescence-labelled peptides as substrate at 8 uM after 90 mins by microfluidic peptide phosphorylation assay
Chain of Tyrosine-protein kinase HCK (Homo sapiens) (P08631 2-526 limits assumed): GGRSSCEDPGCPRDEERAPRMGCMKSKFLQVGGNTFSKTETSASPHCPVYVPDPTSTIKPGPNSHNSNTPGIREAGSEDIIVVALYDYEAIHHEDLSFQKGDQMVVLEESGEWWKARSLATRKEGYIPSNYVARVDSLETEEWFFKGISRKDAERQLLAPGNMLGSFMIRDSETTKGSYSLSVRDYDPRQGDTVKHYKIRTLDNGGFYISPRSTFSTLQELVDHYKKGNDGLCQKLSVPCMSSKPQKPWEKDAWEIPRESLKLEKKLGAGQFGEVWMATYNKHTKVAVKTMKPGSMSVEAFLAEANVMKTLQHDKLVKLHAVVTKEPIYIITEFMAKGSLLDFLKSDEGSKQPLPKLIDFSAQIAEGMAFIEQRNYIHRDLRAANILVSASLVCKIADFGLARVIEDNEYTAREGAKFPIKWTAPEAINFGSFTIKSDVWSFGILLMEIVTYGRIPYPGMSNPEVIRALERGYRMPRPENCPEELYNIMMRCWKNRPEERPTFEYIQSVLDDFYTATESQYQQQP

Chain of RAF proto-oncogene serine/threonine-protein kinase (Homo sapiens) (P04049 whole entry, the tested form may be a part): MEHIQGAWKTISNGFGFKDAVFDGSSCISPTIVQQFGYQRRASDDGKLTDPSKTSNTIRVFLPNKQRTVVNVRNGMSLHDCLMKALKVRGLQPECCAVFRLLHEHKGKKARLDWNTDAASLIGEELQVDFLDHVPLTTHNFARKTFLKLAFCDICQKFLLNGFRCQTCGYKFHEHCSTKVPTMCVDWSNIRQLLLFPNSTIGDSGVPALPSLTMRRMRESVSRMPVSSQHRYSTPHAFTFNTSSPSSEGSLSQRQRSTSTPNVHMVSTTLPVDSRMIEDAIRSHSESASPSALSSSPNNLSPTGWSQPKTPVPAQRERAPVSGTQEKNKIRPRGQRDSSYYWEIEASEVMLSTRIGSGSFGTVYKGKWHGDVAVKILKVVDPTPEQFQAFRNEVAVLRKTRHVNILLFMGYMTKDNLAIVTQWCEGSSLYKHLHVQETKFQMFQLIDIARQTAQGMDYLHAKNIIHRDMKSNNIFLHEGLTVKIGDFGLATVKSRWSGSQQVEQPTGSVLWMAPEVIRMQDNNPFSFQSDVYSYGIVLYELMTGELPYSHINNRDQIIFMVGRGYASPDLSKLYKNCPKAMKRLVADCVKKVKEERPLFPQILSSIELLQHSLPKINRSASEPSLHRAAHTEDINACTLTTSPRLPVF
Chain of Protein kinase C beta type (Homo sapiens) (P05771 2-671 limits assumed): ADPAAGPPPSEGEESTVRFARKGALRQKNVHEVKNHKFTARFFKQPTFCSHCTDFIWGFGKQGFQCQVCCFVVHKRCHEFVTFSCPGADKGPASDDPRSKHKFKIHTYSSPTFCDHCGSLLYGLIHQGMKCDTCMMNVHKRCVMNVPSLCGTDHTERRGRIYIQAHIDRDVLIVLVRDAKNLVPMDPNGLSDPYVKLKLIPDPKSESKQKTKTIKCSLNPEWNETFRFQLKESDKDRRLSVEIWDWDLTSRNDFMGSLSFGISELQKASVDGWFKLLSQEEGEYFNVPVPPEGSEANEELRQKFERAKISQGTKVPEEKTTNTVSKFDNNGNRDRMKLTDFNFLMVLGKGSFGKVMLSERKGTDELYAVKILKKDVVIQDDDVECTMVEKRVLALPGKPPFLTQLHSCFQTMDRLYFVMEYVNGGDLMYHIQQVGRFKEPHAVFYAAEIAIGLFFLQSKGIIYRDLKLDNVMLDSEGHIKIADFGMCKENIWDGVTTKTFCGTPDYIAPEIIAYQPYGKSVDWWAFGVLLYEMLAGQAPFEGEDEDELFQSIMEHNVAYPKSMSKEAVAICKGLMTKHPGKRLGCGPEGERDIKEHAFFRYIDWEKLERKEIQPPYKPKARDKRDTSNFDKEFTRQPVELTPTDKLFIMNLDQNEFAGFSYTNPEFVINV
Chain of Fibroblast growth factor receptor 2 (Homo sapiens), P21802 [N549H] (P21802 whole entry N549H, the tested form may be a part): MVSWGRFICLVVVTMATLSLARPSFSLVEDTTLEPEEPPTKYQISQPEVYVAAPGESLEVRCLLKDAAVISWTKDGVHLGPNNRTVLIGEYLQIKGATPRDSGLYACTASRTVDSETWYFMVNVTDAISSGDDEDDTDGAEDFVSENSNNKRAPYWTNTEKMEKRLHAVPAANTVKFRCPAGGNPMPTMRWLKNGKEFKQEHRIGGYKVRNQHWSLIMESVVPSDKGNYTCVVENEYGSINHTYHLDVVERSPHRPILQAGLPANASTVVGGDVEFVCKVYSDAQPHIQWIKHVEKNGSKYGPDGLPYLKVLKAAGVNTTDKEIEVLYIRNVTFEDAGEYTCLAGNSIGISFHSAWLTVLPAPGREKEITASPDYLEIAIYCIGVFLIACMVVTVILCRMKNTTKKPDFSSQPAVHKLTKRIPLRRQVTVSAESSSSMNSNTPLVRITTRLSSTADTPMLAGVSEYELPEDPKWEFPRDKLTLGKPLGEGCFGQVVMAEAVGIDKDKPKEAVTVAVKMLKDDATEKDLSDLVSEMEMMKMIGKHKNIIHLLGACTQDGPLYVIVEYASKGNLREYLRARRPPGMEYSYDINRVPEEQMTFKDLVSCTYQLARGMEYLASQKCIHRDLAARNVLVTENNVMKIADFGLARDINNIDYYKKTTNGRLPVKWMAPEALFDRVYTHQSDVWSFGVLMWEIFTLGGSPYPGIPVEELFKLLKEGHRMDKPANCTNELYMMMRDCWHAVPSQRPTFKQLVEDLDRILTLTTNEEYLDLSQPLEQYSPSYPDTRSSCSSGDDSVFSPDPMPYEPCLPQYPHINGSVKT
Chain of Mitogen-activated protein kinase kinase kinase kinase 4 (Homo sapiens) (O95819 2-1239 limits assumed): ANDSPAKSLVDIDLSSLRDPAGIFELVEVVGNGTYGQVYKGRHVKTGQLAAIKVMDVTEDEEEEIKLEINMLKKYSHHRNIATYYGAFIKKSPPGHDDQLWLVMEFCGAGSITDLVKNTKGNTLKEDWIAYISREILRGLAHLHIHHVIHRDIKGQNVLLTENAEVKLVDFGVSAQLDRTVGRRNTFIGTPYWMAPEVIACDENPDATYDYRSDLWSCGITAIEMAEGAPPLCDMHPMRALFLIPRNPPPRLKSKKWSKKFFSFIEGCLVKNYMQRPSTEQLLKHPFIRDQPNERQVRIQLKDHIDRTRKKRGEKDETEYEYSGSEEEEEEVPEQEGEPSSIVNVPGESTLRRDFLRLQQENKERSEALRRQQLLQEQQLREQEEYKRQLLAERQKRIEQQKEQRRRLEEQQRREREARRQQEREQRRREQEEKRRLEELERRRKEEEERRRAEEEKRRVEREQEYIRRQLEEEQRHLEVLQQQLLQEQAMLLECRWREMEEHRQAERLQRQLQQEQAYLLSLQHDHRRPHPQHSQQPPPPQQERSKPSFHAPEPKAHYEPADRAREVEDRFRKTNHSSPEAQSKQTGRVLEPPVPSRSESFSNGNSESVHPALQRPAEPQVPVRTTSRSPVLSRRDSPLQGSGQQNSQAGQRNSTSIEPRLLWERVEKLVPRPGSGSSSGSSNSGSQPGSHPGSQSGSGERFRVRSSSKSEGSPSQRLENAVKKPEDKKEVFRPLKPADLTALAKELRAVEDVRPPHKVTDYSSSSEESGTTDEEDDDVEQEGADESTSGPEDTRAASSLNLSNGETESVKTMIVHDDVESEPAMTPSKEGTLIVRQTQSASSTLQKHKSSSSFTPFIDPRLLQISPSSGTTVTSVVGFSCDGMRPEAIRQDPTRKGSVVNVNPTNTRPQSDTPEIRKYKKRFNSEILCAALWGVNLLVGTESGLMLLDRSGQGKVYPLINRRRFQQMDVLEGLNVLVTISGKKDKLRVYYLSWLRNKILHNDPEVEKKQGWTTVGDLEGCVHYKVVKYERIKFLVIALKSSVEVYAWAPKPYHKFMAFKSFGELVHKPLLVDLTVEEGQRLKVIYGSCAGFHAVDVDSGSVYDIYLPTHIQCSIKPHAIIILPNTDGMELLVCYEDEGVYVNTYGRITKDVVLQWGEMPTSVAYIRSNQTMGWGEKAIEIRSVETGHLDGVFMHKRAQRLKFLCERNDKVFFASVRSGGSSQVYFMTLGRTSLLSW
Chain of Calcium/calmodulin-dependent protein kinase type II subunit delta (Homo sapiens) (Q13557 whole entry): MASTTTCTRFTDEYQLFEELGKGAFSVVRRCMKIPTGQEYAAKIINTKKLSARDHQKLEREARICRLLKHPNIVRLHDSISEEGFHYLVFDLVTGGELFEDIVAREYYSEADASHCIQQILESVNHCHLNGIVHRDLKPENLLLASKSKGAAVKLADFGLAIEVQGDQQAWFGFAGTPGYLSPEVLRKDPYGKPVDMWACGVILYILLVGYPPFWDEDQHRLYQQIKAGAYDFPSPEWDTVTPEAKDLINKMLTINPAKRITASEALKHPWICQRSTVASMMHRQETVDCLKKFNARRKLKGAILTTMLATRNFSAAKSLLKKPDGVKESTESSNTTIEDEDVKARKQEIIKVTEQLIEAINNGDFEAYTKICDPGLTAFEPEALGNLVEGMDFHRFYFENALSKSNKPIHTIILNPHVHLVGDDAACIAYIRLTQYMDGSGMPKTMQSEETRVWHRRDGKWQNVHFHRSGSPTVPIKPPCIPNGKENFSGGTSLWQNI

For `NCC1CN(c2ncnc3[nH]c4cnccc4c23)CCO1` (stereo unspecified), the inhibition [1] was 7.5%.
Work on `NCCc1ccc(-c2ncnc3[nH]cnc23)cc1` yielded an inhibition [2] of 40% and an inhibition [3] of 44%.
For `NC1(Cc2ccc(Cl)cc2)CCN(c2ncnc3[nH]ccc23)CC1`, the inhibition [4] was 3.5%.
With `C[C@H](CN(C)C)Oc1nc(Nc2cc3cccc(Cl)c3cn2)cnc1C#N` the inhibition [5] was 0% and the inhibition [6] was 0%.
In the case of `c1nc(N2CCOCC2)c2nc[nH]c2n1`, the inhibition [7] was 71%.
`Clc1ccc(C2(c3ccc(-c4ncnc5[nH]cnc45)cc3)CCNCC2)cc1` was tested, and the inhibition [8] was 38.5% and the inhibition [9] was 1%.
In the case of `NC1CCN(c2ncnc3[nH]ccc23)CC1`, the inhibition [10] was 0%.
`NCC1CCN(c2ncnc3[nH]ccc23)CC1` showed an inhibition [11] of 19.5%.
